Experimental data as given in patent publication US5541175A, “Cephalosporin antibiotics” (Lucky, Ltd., priority 1993, dated 1996).
In brackets after ≈: the same amount, converted by molar mass. Like-named read-outs stand apart in the source and are kept apart here.

Columns and labels:
Experiment in all cases: Minimum inhibitory concentration (agar 2-fold dilution)
Assay type in all cases: cell-based
[1] = test system: Acinetobacter calcoaceticus 15473A; details: read-out: Minimum Inhibitory Concentration
Procedure: (§1) The minimum inhibitory concentration was determined by diluting the test compounds according to 2-fold dilution, suspending them in Muller-Hinton agar medium, inoculating 2 μl of the suspension containing the test strains having 10^7 CFU (Colony Forming Unit) per 1 ml into the medium and then culturing the test strains at 37° C. for 20 hours.

[2] = test system: Citrobacter diversus 2046E; details: Citrobacter koseri, read-out: Minimum Inhibitory Concentration
Procedure: as §1

[3] = test system: Enterobacter cloacae IND + VE 1194E; details: read-out: Minimum Inhibitory Concentration
Procedure: as §1

Enterobacter cloacae P99 = details: P99, 20 h, read-out: Minimum Inhibitory Concentration
Procedure: as §1

Escherichia coli 10536 = details: read-out: Minimum Inhibitory Concentration
Procedure: as §1

Escherichia coli 3190Y = details: read-out: Minimum Inhibitory Concentration
Procedure: as §1

Escherichia coli 851E = details: E. coli 851E, Muller-Hinton agar, 37° C., 20 hours
Procedure: as §1

[4] = test system: Escherichia coli TEM1 1193E; details: TEM11193E, 20 h, read-out: Minimum Inhibitory Concentration
Procedure: as §1

[5] = test system: Escherichia coli TEM3 3455E; details: TEM33455E, 20 h, read-out: Minimum Inhibitory Concentration
Procedure: as §1

[6] = test system: Escherichia coli TEM5 3739E; details: TEM53739E, 20 h, read-out: Minimum Inhibitory Concentration
Procedure: as §1

[7] = test system: Escherichia coli TEM7 3457E; details: TEM73457E, 20 h, read-out: Minimum Inhibitory Concentration
Procedure: as §1

[8] = test system: Escherichia coli TEM9 2639E; details: TEM92639E, 20 h, read-out: Minimum Inhibitory Concentration
Procedure: as §1

[9] = test system: Klebsiella aerogenes K1 + 1082E; details: 20 h, read-out: Minimum Inhibitory Concentration
Procedure: as §1

[10] = test system: Klebsiella aerogenes SHV-1 1976E; details: SHV11976E
Procedure: as §1

Proteus vulgaris 6059A = details: read-out: Minimum Inhibitory Concentration
Procedure: as §1

[11] = test system: Pseudomonas aeruginosa 10145; details: read-out: Minimum Inhibitory Concentration
Procedure: as §1

[12] = test system: Pseudomonas aeruginosa 1912E; details: read-out: Minimum Inhibitory Concentration
Procedure: as §1

[13] = test system: Pseudomonas aeruginosa 6065; details: read-out: Minimum Inhibitory Concentration
Procedure: as §1

[14] = test system: Salmonella typhimurium 14028A; details: Salmonella enterica, read-out: Minimum Inhibitory Concentration
Procedure: as §1

[15] = test system: Serratia marcescens 1826E; details: read-out: Minimum Inhibitory Concentration
Procedure: as §1

[16] = test system: Staphylococcus aureus 241; details: read-out: Minimum Inhibitory Concentration
Procedure: as §1

[17] = test system: Staphylococcus aureus 6538P; details: read-out: Minimum Inhibitory Concentration
Procedure: as §1

Staphylococcus aureus 77 = details: read-out: Minimum Inhibitory Concentration
Procedure: as §1

[18] = test system: Staphylococcus aureus epidermidis 887E; details: read-out: Minimum Inhibitory Concentration
Procedure: as §1

[19] = test system: Staphylococcus aureus giorgio; details: read-out: Minimum Inhibitory Concentration
Procedure: as §1

[20] = test system: Streptococcus faecalis 29212A; details: Enterococcus faecalis, read-out: Minimum Inhibitory Concentration
Procedure: as §1

[21] = A. calcoaceticus 15473A, Muller-Hinton agar, 37° C., 20 hours
[22] = C. diversus 2046E, Muller-Hinton agar, 37° C., 20 hours
[23] = E. cloacae IND + VE 1194E, Muller-Hinton agar, 37° C., 20 hours
[24] = Escherichia coli, E. coli 10536, Muller-Hinton agar, 37° C., 20 hours
[25] = E. coli 3190Y, Muller-Hinton agar, 37° C., 20 hours
[26] = K. aerogenes SHV-1 1976E, Muller-Hinton agar, 37° C., 20 hours
[27] = P. vulgaris 6059A, Muller-Hinton agar, 37° C., 20 hours
[28] = Pseudomonas aeruginosa, P. aeruginosa 10145, Muller-Hinton agar, 37° C., 20 hours
[29] = P. aeruginosa 1912E, Muller-Hinton agar, 37° C., 20 hours
[30] = Pseudomonas aeruginosa, P. aeruginosa 6065, Muller-Hinton agar, 37° C., 20 hours
[31] = S. typhimurium 14028A, Muller-Hinton agar, 37° C., 20 hours
[32] = S. marcescens 1826E, Muller-Hinton agar, 37° C., 20 hours
[33] = Staphylococcus aureus, S. aureus 241, Muller-Hinton agar, 37° C., 20 hours
[34] = Staphylococcus aureus, 77, 20 h
[35] = S. aureus epidermidis 887E, Muller-Hinton agar, 37° C., 20 hours
[36] = S. aureus giorgio, Muller-Hinton agar, 37° C., 20 hours
[37] = S. faecalis 29212A, Muller-Hinton agar, 37° C., 20 hours
[38] = S. aureus 6538P, Muller-Hinton agar, 37° C., 20 hours
[39] = Staphylococcus aureus, S. aureus 77, Muller-Hinton agar, 37° C., 20 hours

Structure (SMILES)	MIC [1, 21]	MIC [2, 22]	MIC [3, 23]	MIC (Enterobacter cloacae P99)	MIC (Escherichia coli 3190Y; [25])	MIC (Escherichia coli 851E)	MIC [4]	MIC [5]	MIC [6]	MIC [7]	MIC [8]	MIC [9]	MIC [10, 26]	MIC (Proteus vulgaris 6059A; [27])	MIC [11, 28]	MIC [12, 29]	MIC [13, 30]	MIC [14, 31]	MIC [15, 32]	MIC [16, 33]	other results
Nc1nc(/C(=N/O[C@@H](C(=O)O)c2ccc(O)c(O)c2)C(=O)N[C@@H]2C(=O)N3C(C(=O)[O-])=C(/C=C/C[n+]4cnc(N)c(N)c4N)CS[C@H]23)cs1 [Compound I-5b, 7-[(Z)-2-(2-aminothiazol-4-yl)-2-(α-carboxy-3,4-dihydroxybenzyloxyimino)acetamido]-3-[(E)-3-(4,5,6-triaminopyrimidinium-1-yl)-1-propen-1-yl]-3-cephem-4-carboxylate]	1 µg/mL (≈ 1.43 µM)	4 µg/mL (≈ 5.72 µM)	8 µg/mL	16 µg/mL (≈ 22.9 µM)	0.13 µg/mL (≈ 0.186 µM)	0.13 µg/mL (≈ 0.186 µM)	0.25 µg/mL (≈ 0.358 µM)	0.063 µg/mL (≈ 0.0902 µM)	1 µg/mL (≈ 1.43 µM)	0.25 µg/mL (≈ 0.358 µM)	1 µg/mL (≈ 1.43 µM)	1 µg/mL (≈ 1.43 µM)	1 µg/mL (≈ 1.43 µM)	1 µg/mL (≈ 1.43 µM)	2 µg/mL (≈ 2.86 µM)	1 µg/mL (≈ 1.43 µM)	8 µg/mL (≈ 11.4 µM)	0.031 µg/mL (≈ 0.0444 µM)	2 µg/mL (≈ 2.86 µM)	128 µg/mL (≈ 183 µM)	MIC (Escherichia coli 10536; [24]): 0.13 µg/mL (≈ 0.186 µM); MIC ([17]; 6538P, 20 h): 0.5 µg/mL (≈ 0.716 µM); MIC (Staphylococcus aureus 77; [34]): 2 µg/mL (≈ 2.86 µM); MIC [18, 35]: 64 µg/mL (≈ 91.6 µM); MIC [19, 36]: 0.5 µg/mL (≈ 0.716 µM); MIC [20, 37]: 8 µg/mL (≈ 11.4 µM)
Nc1cc(N)[n+](C/C=C/C2=C(C(=O)[O-])N3C(=O)[C@@H](NC(=O)/C(=N\O[C@@H](C(=O)O)c4ccc(O)c(O)c4)c4csc(N)n4)[C@H]3SC2)cn1 [Compound I-1b, 7-[(Z)-2-(2-aminothiazol-4-yl)-2-(α-carboxy-3,4-dihydroxybenzyloxyimino)acetamido]-3-[(E)-3-(4,6-diaminopyrimidinium-1-yl)-1-propen-1-yl]-3-cephem-4-carboxylate]	4 µg/mL (≈ 5.85 µM)	16 µg/mL (≈ 23.4 µM)	64 µg/mL	128 µg/mL (≈ 187 µM)	0.13 µg/mL (≈ 0.19 µM)	0.13 µg/mL (≈ 0.19 µM)	0.25 µg/mL (≈ 0.366 µM)	0.5 µg/mL (≈ 0.731 µM)	2 µg/mL (≈ 2.93 µM)	0.25 µg/mL (≈ 0.366 µM)	2 µg/mL (≈ 2.93 µM)	2 µg/mL (≈ 2.93 µM)	1 µg/mL (≈ 1.46 µM)	0.5 µg/mL (≈ 0.731 µM)	32 µg/mL (≈ 46.8 µM)	64 µg/mL (≈ 93.6 µM)	32 µg/mL (≈ 46.8 µM)	0.13 µg/mL (≈ 0.19 µM)	2 µg/mL (≈ 2.93 µM)	128 µg/mL (≈ 187 µM)	MIC (Escherichia coli 10536; Escherichia coli, 10536, 20 h): 0.13 µg/mL (≈ 0.19 µM); MIC [17, 38]: 0.5 µg/mL (≈ 0.731 µM); MIC (Staphylococcus aureus 77; [39]): 2 µg/mL (≈ 2.93 µM); MIC [18, 35]: 64 µg/mL (≈ 93.6 µM); MIC [19, 36]: 0.5 µg/mL (≈ 0.731 µM); MIC [20, 37]: 8 µg/mL (≈ 11.7 µM)
CC(C)(O/N=C(\C(=O)N[C@@H]1C(=O)N2C(C(=O)[O-])=C(C[n+]3ccccc3)CS[C@H]12)c1csc(N)n1)C(=O)O [CAZ, Ceftazidime, reference compound]	–	–	–	64 µg/mL (≈ 117 µM)	–	0.063 µg/mL (≈ 0.115 µM)	0.25 µg/mL (≈ 0.457 µM)	8 µg/mL (≈ 14.6 µM)	8 µg/mL (≈ 14.6 µM)	16 µg/mL (≈ 29.3 µM)	> 128 µg/mL	0.5 µg/mL (≈ 0.915 µM)	–	–	–	–	–	–	–	–	MIC ([1]; 15473A, 20 h): 2 µg/mL (≈ 3.66 µM); MIC ([2]; 2046E, 20 h): 0.5 µg/mL (≈ 0.915 µM); MIC ([3]; 20 h): 128 µg/mL (≈ 234 µM); MIC (Escherichia coli 10536; Escherichia coli, 10536, 20 h): 0.13 µg/mL (≈ 0.238 µM); MIC (Escherichia coli 3190Y; 3190Y, 20 h): 0.063 µg/mL (≈ 0.115 µM); MIC ([10]; 20 h): 0.25 µg/mL (≈ 0.457 µM); MIC (Proteus vulgaris 6059A; 6059A, 20 h): 0.063 µg/mL (≈ 0.115 µM); MIC ([11]; Pseudomonas aeruginosa, 10145, 20 h): 2 µg/mL (≈ 3.66 µM); MIC ([12]; 1912E, 20 h): 1 µg/mL (≈ 1.83 µM); MIC ([13]; Pseudomonas aeruginosa, 6065, 20 h): 16 µg/mL (≈ 29.3 µM); MIC ([14]; TYPHIMURIUM, 20 h): 0.25 µg/mL (≈ 0.457 µM); MIC ([15]; 1826E, 20 h): 0.25 µg/mL (≈ 0.457 µM); MIC ([16]; Staphylococcus aureus, 241, 20 h): > 128 µg/mL; MIC ([17]; 6538P, 20 h): 16 µg/mL (≈ 29.3 µM); MIC (Staphylococcus aureus 77; [34]): 32 µg/mL (≈ 58.5 µM); MIC ([18]; 20 h): > 128 µg/mL; MIC ([19]; 20 h): 4 µg/mL (≈ 7.32 µM); MIC ([20]; 29212A, 20 h): > 128 µg/mL
Cc1c(N)nc[n+](C/C=C/C2=C(C(=O)[O-])N3C(=O)[C@@H](NC(=O)/C(=N\O[C@@H](C(=O)O)c4ccc(O)c(O)c4)c4csc(N)n4)[C@H]3SC2)c1N [Compound I-4b, 7-[(Z)-2-(2-aminothiazol-4-yl)-2-(α-carboxy-3,4-dihydroxybenzyloxyimino)acetamido]-3-[(E)-3-(4,6-diamino-5-methylpyrimidinium-1-yl)-1-propen-1-yl]-3-cephem-4-carboxylate]	4 µg/mL (≈ 5.73 µM)	4 µg/mL (≈ 5.73 µM)	8 µg/mL	16 µg/mL (≈ 22.9 µM)	0.13 µg/mL (≈ 0.186 µM)	0.13 µg/mL (≈ 0.186 µM)	0.25 µg/mL (≈ 0.358 µM)	0.5 µg/mL (≈ 0.717 µM)	1 µg/mL (≈ 1.43 µM)	0.25 µg/mL (≈ 0.358 µM)	1 µg/mL (≈ 1.43 µM)	2 µg/mL (≈ 2.87 µM)	1 µg/mL (≈ 1.43 µM)	1 µg/mL (≈ 1.43 µM)	4 µg/mL (≈ 5.73 µM)	8 µg/mL (≈ 11.5 µM)	16 µg/mL (≈ 22.9 µM)	0.13 µg/mL (≈ 0.186 µM)	2 µg/mL (≈ 2.87 µM)	128 µg/mL (≈ 183 µM)	MIC (Escherichia coli 10536; [24]): 0.13 µg/mL (≈ 0.186 µM); MIC [17, 38]: 0.5 µg/mL (≈ 0.717 µM); MIC (Staphylococcus aureus 77; [39]): 2 µg/mL (≈ 2.87 µM); MIC [18, 35]: 32 µg/mL (≈ 45.9 µM); MIC [19, 36]: 0.5 µg/mL (≈ 0.717 µM); MIC [20, 37]: 8 µg/mL (≈ 11.5 µM)
